Data as given in the NIST ThermoML archive (doi:10.1016/j.fluid.2007.01.022).
Numbers after ± are expanded uncertainties.

Conditions: 298.15 K; 101.33 kPa; Liquid

Row | SMILES | mass density [kg/m3]
1 | CCCCCCCC [octane] | 698.636 ± 1.3
2 | Cc1ccccc1N [2-methylaniline] | 994.343 ± 0.24
3 | CCCCCCCCC [nonane] | 714.064 ± 1.3
4 | CCCCCCC [heptane] | 679.627 ± 0.85
5 | CCCCCCCCCCCC [dodecane] | 741.54 ± 1.6
6 | CCCCCCCCCC [decane] | 726.412 ± 1.6
